In patent US9833497B2, “Human originated EGF domain proteins and use of the same” (CHENGDU SOURCEBIO LIMITED-LIABILITY COMPANY, priority 2013, dated 2017):

Tests used:
Assay type in all cases: cell-based
Proteus vulgaris = test: MIC against Gram-negative bacteria: Proteus vulgaris; details: 5×10^5 CFU/mL
Procedure, shortened: (§1)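 Bacteria grown in LB at 37° C with shaking to McFarland 0.5, pelleted and resuspended in fresh LB, then seeded at 5×10^5 CFU/mL per well. Purified recombinant human EGF domain proteins were two-fold serially diluted in triplicate and plates shaken at 37° C, 175 rpm. MIC is the lowest protein concentration with no bacterial growth.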

Enterobacter cloacae = test: MIC against Gram-negative bacteria: Enterobacter cloacae; details: 5×10^5 CFU/mL
Procedure, shortened: as §1

Aeromonas hydrophila = test: MIC against Gram-negative bacteria: Aeromonas hydrophila; details: 5×10^5 CFU/mL
Procedure, shortened: as §1

Klebsiella pneumonia = test: MIC against Gram-negative bacteria: Klebsiella pneumonia; details: 5×10^5 CFU/mL
Procedure, shortened: as §1

Moraxella catarrhalis = test: MIC against Gram-negative bacteria: Moraxella catarrhalis; details: 5×10^5 CFU/mL
Procedure, shortened: as §1

E. coli DH5α = test: Antibacterial activity: MIC and growth curve against E. coli DH5α in 96-well plate; details: minimal inhibitory concentration against E. coli DH5α; 96-well plate, 5×10^5 CFU/mL, 37° C., judged after 8 h
Procedure, shortened: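 Log-phase DH5α (OD600 about 0.5, 37° C, 185 rpm in LB) was pelleted, resuspended in fresh LB and seeded at 5×10^5 CFU/mL with recombinant protein at 50, 25 and 12.5 μg/mL (two-fold series), in triplicate. Plates were shaken at 175 rpm, 37° C, and OD600 was read every 30 min. MIC was the lowest concentration with no growth.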

Serratia marcescens = test: MIC against Gram-negative bacteria: Serratia marcescens; details: 5×10^5 CFU/mL
Procedure, shortened: as §1

Citrobacter diversus = test: MIC against Gram-negative bacteria: Citrobacter diversus; details: 5×10^5 CFU/mL
Procedure, shortened: as §1

Proteus mirabilis = test: MIC against Gram-negative bacteria: Proteus mirabilis; details: 5×10^5 CFU/mL
Procedure, shortened: as §1

E. coli BL21 = test: MIC against Gram-negative bacteria: E. coli BL21; details: 5×10^5 CFU/mL
Procedure, shortened: as §1

Pseudomonas aeruginosa = test: MIC against Gram-negative bacteria: Pseudomonas aeruginosa; details: 5×10^5 CFU/mL
Procedure, shortened: as §1

[1] = Proteus vulgaris, 96-well plate, 37° C., 10 h
[2] = Enterobacter cloacae, 96-well plate, 37° C., 10 h
[3] = Aeromonas hydrophila, 96-well plate, 37° C., 10 h
[4] = Klebsiella pneumonia, 96-well plate, 37° C., 10 h
[5] = Moraxella catarrhalis, 96-well plate, 37° C., 10 h
[6] = Serratia marcescens, 96-well plate, 37° C., 10 h
[7] = Citrobacter diversus, 96-well plate, 37° C., 10 h
[8] = Proteus mirabilis, 96-well plate, 37° C., 10 h
[9] = E. coli BL21, 96-well plate, 37° C., 10 h
[10] = Pseudomonas aeruginosa, 96-well plate, 37° C., 10 h
[11] = P. vulgaris, 10 h cultivation at 37° C.
[12] = E. cloacae, 10 h cultivation at 37° C.
[13] = A. hydrophila, 10 h cultivation at 37° C.
[14] = K. pneumonia, 10 h cultivation at 37° C.
[15] = M. catarrhalis, 10 h cultivation at 37° C.
[16] = S. marcescens, 10 h cultivation at 37° C.
[17] = C. diversus, 10 h cultivation at 37° C.
[18] = P. mirabilis, 10 h cultivation at 37° C.
[19] = E. coli BL21, 10 h cultivation at 37° C.
[20] = P. aeruginosa, 10 h cultivation at 37° C.

Substance	MIC (μg/mL) P. vulgaris (Proteus vulgaris; [1])	MIC (μg/mL) E. cloacae (Enterobacter cloacae; [2])	MIC (μg/mL) A. hydrophila (Aeromonas hydrophila; [3])	MIC (μg/mL) K. pneumonia (Klebsiella pneumonia; [4])	MIC (μg/mL) M. catarrhalis (Moraxella catarrhalis; [5])	MIC (E. coli DH5α)	MIC (μg/mL) S. marcescens (Serratia marcescens; [6])	MIC (μg/mL) C. diversus (Citrobacter diversus; [7])	MIC (μg/mL) P. mirabilis (Proteus mirabilis; [8])	MIC (μg/mL) E. coli BL21 (E. coli BL21; [9])	MIC (μg/mL) P. aeruginosa (Pseudomonas aeruginosa; [10])	MIC (μg/mL) P. vulgaris (Proteus vulgaris; [11])	MIC (μg/mL) E. cloacae (Enterobacter cloacae; [12])	MIC (μg/mL) A. hydrophila (Aeromonas hydrophila; [13])	MIC (μg/mL) K. pneumonia (Klebsiella pneumonia; [14])	MIC (μg/mL) M. catarrhalis (Moraxella catarrhalis; [15])	MIC (μg/mL) S. marcescens (Serratia marcescens; [16])	MIC (μg/mL) C. diversus (Citrobacter diversus; [17])	MIC (μg/mL) P. mirabilis (Proteus mirabilis; [18])	MIC (μg/mL) E. coli BL21 (E. coli BL21; [19])	further results
PRT23 (KKNPCNAEFQNFCIHGECKYIEHLEAVTCKCQQEYFGERCG; listed as Homo sapiens)	25 µg/mL	25 µg/mL	12.5 µg/mL	12.5 µg/mL	25 µg/mL	12.5 µg/mL	50 µg/mL	50 µg/mL	50 µg/mL	25 µg/mL	12.5 µg/mL										
PRT884 (HSDPCENNPCLHGGTCNANGTMYGCSCDQGFAGENCE; listed as Homo sapiens)						12.5 µg/mL						50 µg/mL	12.5 µg/mL	12.5 µg/mL	12.5 µg/mL	12.5 µg/mL	25 µg/mL	12.5 µg/mL	25 µg/mL	12.5 µg/mL	MIC (μg/mL) P. aeruginosa (Pseudomonas aeruginosa; [20]): 12.5 µg/mL
PRT243 (DVNECGMKPRPCQHRCVNTHGSYKCFCLSGHMLMPDATCV; listed as Homo sapiens)						12.5 µg/mL						25 µg/mL	12.5 µg/mL	25 µg/mL	12.5 µg/mL	25 µg/mL	12.5 µg/mL	12.5 µg/mL	12.5 µg/mL	12.5 µg/mL	MIC (μg/mL) P. aeruginosa (Pseudomonas aeruginosa; [20]): 12.5 µg/mL
PRT1247 (WGARCEHACQCQHGTCHPRSGACRCEPGWWGAQCA; listed as Homo sapiens)						50 µg/mL															MIC against P. vulgaris (Proteus vulgaris; [1]): 12.5 µg/mL; MIC against E. cloacae (Enterobacter cloacae; [2]): 12.5 µg/mL; MIC against A. hydrophila (Aeromonas hydrophila; [3]): 12.5 µg/mL; MIC against K. pneumonia (Klebsiella pneumonia; [4]): 25 µg/mL; MIC against M. catarrhalis (Moraxella catarrhalis; [5]): 12.5 µg/mL; MIC against S. marcescens (Serratia marcescens; [6]): 25 µg/mL; MIC against C. diversus (Citrobacter diversus; [7]): 25 µg/mL; MIC against P. mirabilis (Proteus mirabilis; [8]): 25 µg/mL; MIC against E. coli BL21 (E. coli BL21; [9]): 12.5 µg/mL; MIC against P. aeruginosa (Pseudomonas aeruginosa; [10]): 12.5 µg/mL
PRT113 (DLDECASRSKSGEEDPQPQCQHLCHNYVGGYFCSCRPGYELQEDRHSCQ; listed as Homo sapiens)	12.5 µg/mL	25 µg/mL	50 µg/mL	12.5 µg/mL	50 µg/mL	12.5 µg/mL	100 µg/mL	12.5 µg/mL	12.5 µg/mL	50 µg/mL	25 µg/mL										
PRT481 (EITACSSSPCFHDGTCVLDKAGSYKCACLAGYTGQRCE; listed as Homo sapiens)						25 µg/mL															MIC against P. vulgaris (Proteus vulgaris; 96-well plate, 37° C., 10 h): 50 µg/mL; MIC against E. cloacae (Enterobacter cloacae; 96-well plate, 37° C., 10 h): 12.5 µg/mL; MIC against A. hydrophila (Aeromonas hydrophila; 96-well plate, 37° C., 10 h): 50 µg/mL; MIC against K. pneumonia (Klebsiella pneumonia; 96-well plate, 37° C., 10 h): 50 µg/mL; MIC against M. catarrhalis (Moraxella catarrhalis; 96-well plate, 37° C., 10 h): 50 µg/mL; MIC against S. marcescens (Serratia marcescens; 96-well plate, 37° C., 10 h): 12.5 µg/mL; MIC against C. diversus (Citrobacter diversus; 96-well plate, 37° C., 10 h): 12.5 µg/mL; MIC against P. mirabilis (Proteus mirabilis; 96-well plate, 37° C., 10 h): 12.5 µg/mL; MIC against E. coli BL21 (E. coli BL21; 96-well plate, 37° C., 10 h): 12.5 µg/mL; MIC against P. aeruginosa (Pseudomonas aeruginosa; 96-well plate, 37° C., 10 h): 25 µg/mL
